# Results as given in patent publication US20230218710A1, “METHOD OF TREATING CORONAVIRUS INFECTIONS” (priority 2020, published 2023).
# Marks after values point to notes of the source that are not given here.
# Columns and labels:
# [1] = tested on: LPS-induced acute lung injury mouse model; test: LPS-induced acute lung injury model in mouse (Example 8); type: in vivo, mice; details: HCl salts; for Pro-inflammatory Cytokine Level IFNγ / Pro-inflammatory Cytokine Level IL-1β / Pro-inflammatory Cytokine Level IL-2 / Pro-inflammatory Cytokine Level IL-4 / Pro-inflammatory Cytokine Level IL-5 / Pro-inflammatory Cytokine Level IL-6 / Pro-inflammatory Cytokine Level IL-9 / Pro-inflammatory Cytokine Level IL-10 / Pro-inflammatory Cytokine Level IL-12p70 / Pro-inflammatory Cytokine Level IL-17A / Pro-inflammatory Cytokine Level IL-17A/F / Pro-inflammatory Cytokine Level IL-17C / Pro-inflammatory Cytokine Level IL-17E/IL-25 / Pro-inflammatory Cytokine Level IL-23 / Pro-inflammatory Cytokine Level IL-27p28/IL-30 / Pro-inflammatory Cytokine Level IL-31 / Pro-inflammatory Cytokine Level IP-10 / Pro-inflammatory Cytokine Level KC/GRO / Pro-inflammatory Cytokine Level MCP-1 / Pro-inflammatory Cytokine Level MIP-1α / Pro-inflammatory Cytokine Level MIP-2 / Pro-inflammatory Cytokine Level MIP-3α / Pro-inflammatory Cytokine Level TNFα: BALF; for Mean (SEM) Alveolar Neutrophil Infiltration Score / Mean (SEM) Interstitial Neutrophil Infiltration Score / Mean (SEM) Composite Lung Injury Score: histopathology; for Mean (SEM) Alveolar Neutrophil Infiltration Score / Mean (SEM) Interstitial Neutrophil Infiltration Score: 0-5 scale
# Method: The effect of the peptides of the current invention on acute lung injury can be assessed in an LPS-induced acute lung injury mouse model by monitoring outcomes such as lung weight, fluid accumulation, cytokine secretion in blood or bronchoalveolar lavage fluid (BALF), neutrophil infiltration into lung tissues, and assessment of acute lung injury score by histopathology. Acute lung injury was induced in male C57BL/6 mice (6 to 8 weeks old) by intratracheal administration of 40 μL lipopolysaccharide (LPS) (Sigma Aldrich, St. Louis, Mo.) in PBS at 5 mg/kg. Control animals received intratracheal PBS alone. Animals (n=8 per treatment group) induced with LPS received intraperitoneal treatment with: PBS (vehicle control) or test peptides at 5 or 15 mg/kg in water. Treatments were administered 1 h prior to LPS for animals designated for termination at 4 h after LPS, or at both 1 h prior to and 6 h after LPS for animals designated for termination at 24 h after LPS. At 4 or 24 hours post-LPS administration, tissues were harvested. Lungs were weighed and flushed with Hanks Buffer to provide bronchoalveolar lavage fluid (BALF). Lungs collected at 24 h were fixed in 10% neutral buffered formalin (NBF) for histopathology. Tissue slides were stained with hematoxylin and eosin (H&E) and evaluated and scored with light microscopy of 5 representative microscopic fields (100× magnification) scoring on a 0-5 scale using standard methods (Matute-Bello G et al 2011. An Official American Thoracic Society Workshop Report: Features and Measurements of Experimental Acute Lung Injury in Animals. Am J Respir Cell Mol Biol 44:725-38). The average score for five fields was calculated for each animal. Levels of pro-inflammatory cytokines in BALF at 4 h were determined using a meso scale discovery (MSD) system. Data for test peptides were compared to the vehicle control group. Table 13 compares the lung weights following LPS induction and treatment with PBS (vehicle control), or peptides. Table 14 compares the levels of pro-inflammatory cytokines in BALF following LPS induction and treatment with PBS (vehicle control) or peptides. Table 15 compares the histopathology scores for infiltration of neutrophils into alveoli and interstitial lung tissue and the composite lung injury score following LPS induction and treatment with PBS (vehicle control) or peptides.
# Apelin Receptor (APJ) = target: T1, Apelin Receptor (APJ) (Homo sapiens, UniProt P35414); test: Phosphorylation of MEK1 in cultured cells overexpressing APJ; type: cell-based; details: 5 min, 100 nM Pyr-Apelin-13 = positive control, acetate salts
# T1 construct: host or cells: CHO-K1 AGTRL1 Gi cells
# T1 sequence (P35414 1-380): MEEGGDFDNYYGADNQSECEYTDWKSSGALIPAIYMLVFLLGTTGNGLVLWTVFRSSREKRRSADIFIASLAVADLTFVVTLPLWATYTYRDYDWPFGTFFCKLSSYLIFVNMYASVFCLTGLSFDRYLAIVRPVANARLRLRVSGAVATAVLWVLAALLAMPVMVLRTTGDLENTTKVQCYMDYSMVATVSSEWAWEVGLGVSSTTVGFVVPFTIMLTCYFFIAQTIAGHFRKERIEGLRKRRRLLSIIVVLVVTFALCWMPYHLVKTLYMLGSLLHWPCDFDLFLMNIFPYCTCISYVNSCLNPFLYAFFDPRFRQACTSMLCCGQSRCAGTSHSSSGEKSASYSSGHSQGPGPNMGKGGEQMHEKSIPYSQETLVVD
# Method: Peptides were initially prepared as 100× stocks in H2O. […] Following a 5 min incubation, the supernatant was removed and the cells were placed on ice and washed twice with cold HBSS. The HBSS was removed and the cells were immediately lysed in 300 μl/well of 1× lysis buffer (CST 10× Lysis Buffer; Cell Signaling Technology; Danvers, Mass.); lysis buffer was supplemented with 1 mM PMSF (Millipore-Sigma; Saint Louis, Mo.) and Halt Protease/Phosphatase Inhibitor Cocktail (Thermo-Fisher; Waltham, Mass.) prior to use. The samples were then placed on ice for 10 min, the wells were scraped and lysates were centrifuged at 12,500 rpm for 10 min at 4° C., and p-MEK expression in each sample was measured using Phospho-MEK1 (Ser217/221) Sandwich ELISA kit according to manufacturer's instructions (Cell Signaling Technology; Danvers, Mass.). Absorbance was measured using a Cytation 3 plate reader at […] (BioTek; Winooski, Vt.). […] Each data point represents the average of duplicate assays.
substance,measurement,setting,value
(PEG12)KRRLLGLVFQSLCG(dA) (KRRLLGLVFQSLCGA; N-terminal PEG12; C-terminal D-alanine; (1)..(1) PEG12; (15)..(15) D-Ala) [SEQ ID NO: 37],Mean (SEM) Lung Weight,"[1]; 4 h after LPS, 5 mg/kg i.p.",0.279 (0.006) g
same,Mean (SEM) Lung Weight,"[1]; 4 h after LPS, 15 mg/kg i.p.",0.280 (0.005) g
same,Mean (SEM) Lung Weight,"[1]; 24 h after LPS, 5 mg/kg i.p.",0.286 (0.008)* g
same,Mean (SEM) Lung Weight,"[1]; 24 h after LPS, 15 mg/kg i.p.",0.284 (0.007)* g
same,Pro-inflammatory Cytokine Level IFNγ,"[1]; 4 h after LPS, 5 mg/kg i.p.",0.37 (0.07) pg/mL
same,Pro-inflammatory Cytokine Level IL-1β,"[1]; 4 h after LPS, 5 mg/kg i.p.",68.3 (12.6) pg/mL
same,Pro-inflammatory Cytokine Level IL-2,"[1]; 4 h after LPS, 5 mg/kg i.p.",2.83 (0.45) pg/mL
same,Pro-inflammatory Cytokine Level IL-4,"[1]; 4 h after LPS, 5 mg/kg i.p.",1.63 (0.37) pg/mL
same,Pro-inflammatory Cytokine Level IL-5,"[1]; 4 h after LPS, 5 mg/kg i.p.",8.14 (1.35) pg/mL
same,Pro-inflammatory Cytokine Level IL-6,"[1]; 4 h after LPS, 5 mg/kg i.p.",9380 (1380) pg/mL
same,Pro-inflammatory Cytokine Level IL-9,"[1]; 4 h after LPS, 5 mg/kg i.p.",7.84 (0.67) pg/mL
same,Pro-inflammatory Cytokine Level IL-10,"[1]; 4 h after LPS, 5 mg/kg i.p.",32.2 (5.31) pg/mL
same,Pro-inflammatory Cytokine Level IL-12p70,"[1]; 4 h after LPS, 5 mg/kg i.p.",65.2 (15.9) pg/mL
same,Pro-inflammatory Cytokine Level IL-17A,"[1]; 4 h after LPS, 5 mg/kg i.p.",2.22 (0.741) pg/mL
same,Pro-inflammatory Cytokine Level IL-17A/F,"[1]; 4 h after LPS, 5 mg/kg i.p.",7.45 (2.46) pg/mL
same,Pro-inflammatory Cytokine Level IL-17C,"[1]; 4 h after LPS, 5 mg/kg i.p.",0.66 (0.04) pg/mL
same,Pro-inflammatory Cytokine Level IL-17E/IL-25,"[1]; 4 h after LPS, 5 mg/kg i.p.",0.18 (0.10) pg/mL
same,Pro-inflammatory Cytokine Level IL-23,"[1]; 4 h after LPS, 5 mg/kg i.p.",0.08 (0.07) pg/mL
same,Pro-inflammatory Cytokine Level IL-27p28/IL-30,"[1]; 4 h after LPS, 5 mg/kg i.p.",13.7 (2.44) pg/mL
same,Pro-inflammatory Cytokine Level IL-31,"[1]; 4 h after LPS, 5 mg/kg i.p.",0.00 (0.00) pg/mL
same,Pro-inflammatory Cytokine Level IP-10,"[1]; 4 h after LPS, 5 mg/kg i.p.",2290 (341) pg/mL
same,Pro-inflammatory Cytokine Level KC/GRO,"[1]; 4 h after LPS, 5 mg/kg i.p.",3120 (196) pg/mL
same,Pro-inflammatory Cytokine Level MCP-1,"[1]; 4 h after LPS, 5 mg/kg i.p.",1310 (225) pg/mL
same,Pro-inflammatory Cytokine Level MIP-1α,"[1]; 4 h after LPS, 5 mg/kg i.p.",5660 (50.6) pg/mL
same,Pro-inflammatory Cytokine Level MIP-2,"[1]; 4 h after LPS, 5 mg/kg i.p.",3230 (25.1) pg/mL
same,Pro-inflammatory Cytokine Level MIP-3α,"[1]; 4 h after LPS, 5 mg/kg i.p.",983 (75.1) pg/mL
same,Pro-inflammatory Cytokine Level TNFα,"[1]; 4 h after LPS, 5 mg/kg i.p.",4070 (518) pg/mL
same,Pro-inflammatory Cytokine Level IFNγ,"[1]; 4 h after LPS, 15 mg/kg i.p.",0.42 (0.10) pg/mL
same,Pro-inflammatory Cytokine Level IL-1β,"[1]; 4 h after LPS, 15 mg/kg i.p.",91.5 (20.0) pg/mL
same,Pro-inflammatory Cytokine Level IL-2,"[1]; 4 h after LPS, 15 mg/kg i.p.",3.36 (0.55) pg/mL
same,Pro-inflammatory Cytokine Level IL-4,"[1]; 4 h after LPS, 15 mg/kg i.p.",1.75 (0.28) pg/mL
same,Pro-inflammatory Cytokine Level IL-5,"[1]; 4 h after LPS, 15 mg/kg i.p.",13.2 (2.05) pg/mL
same,Pro-inflammatory Cytokine Level IL-6,"[1]; 4 h after LPS, 15 mg/kg i.p.",11600 (1360) pg/mL
same,Pro-inflammatory Cytokine Level IL-9,"[1]; 4 h after LPS, 15 mg/kg i.p.",7.89 (1.31) pg/mL
same,Pro-inflammatory Cytokine Level IL-10,"[1]; 4 h after LPS, 15 mg/kg i.p.",31.5 (3.76) pg/mL
same,Pro-inflammatory Cytokine Level IL-12p70,"[1]; 4 h after LPS, 15 mg/kg i.p.",80.0 (21.8) pg/mL
same,Pro-inflammatory Cytokine Level IL-17A,"[1]; 4 h after LPS, 15 mg/kg i.p.",2.82 (0.639) pg/mL
same,Pro-inflammatory Cytokine Level IL-17A/F,"[1]; 4 h after LPS, 15 mg/kg i.p.",4.48 (0.59) pg/mL
same,Pro-inflammatory Cytokine Level IL-17C,"[1]; 4 h after LPS, 15 mg/kg i.p.",0.69 (0.13) pg/mL
same,Pro-inflammatory Cytokine Level IL-17E/IL-25,"[1]; 4 h after LPS, 15 mg/kg i.p.",0.44 (0.29) pg/mL
same,Pro-inflammatory Cytokine Level IL-23,"[1]; 4 h after LPS, 15 mg/kg i.p.",0.06 (0.05) pg/mL
same,Pro-inflammatory Cytokine Level IL-27p28/IL-30,"[1]; 4 h after LPS, 15 mg/kg i.p.",15.5 (2.42) pg/mL
same,Pro-inflammatory Cytokine Level IL-31,"[1]; 4 h after LPS, 15 mg/kg i.p.",0.00 (0.00) pg/mL
same,Pro-inflammatory Cytokine Level IP-10,"[1]; 4 h after LPS, 15 mg/kg i.p.",3020 (547) pg/mL
same,Pro-inflammatory Cytokine Level KC/GRO,"[1]; 4 h after LPS, 15 mg/kg i.p.",3260 (142) pg/mL
same,Pro-inflammatory Cytokine Level MCP-1,"[1]; 4 h after LPS, 15 mg/kg i.p.",1590 (178) pg/mL
same,Pro-inflammatory Cytokine Level MIP-1α,"[1]; 4 h after LPS, 15 mg/kg i.p.",5490 (35.1) pg/mL
same,Pro-inflammatory Cytokine Level MIP-2,"[1]; 4 h after LPS, 15 mg/kg i.p.",3160 (34.2) pg/mL
same,Pro-inflammatory Cytokine Level MIP-3α,"[1]; 4 h after LPS, 15 mg/kg i.p.",825 (46.9) pg/mL
same,Pro-inflammatory Cytokine Level TNFα,"[1]; 4 h after LPS, 15 mg/kg i.p.",3910 (349) pg/mL
same,Mean (SEM) Alveolar Neutrophil Infiltration Score,"[1]; 24 h after LPS, 5 mg/kg i.p.",1.50 (0.09)
same,Mean (SEM) Interstitial Neutrophil Infiltration Score,"[1]; 24 h after LPS, 5 mg/kg i.p.",1.55 (0.14)
same,Mean (SEM) Alveolar Neutrophil Infiltration Score,"[1]; 24 h after LPS, 15 mg/kg i.p.",1.60 (0.13)
same,Mean (SEM) Interstitial Neutrophil Infiltration Score,"[1]; 24 h after LPS, 15 mg/kg i.p.",1.23 (0.11)
same,Mean (SEM) Composite Lung Injury Score,"[1]; 24 h after LPS, 5 mg/kg i.p.",3.08 (0.17)
same,Mean (SEM) Composite Lung Injury Score,"[1]; 24 h after LPS, 15 mg/kg i.p.",2.93 (0.22)
same,pMEK1 (% of Positive Control),Apelin Receptor (APJ); 2.0 μM peptide,8.7%
same,pMEK1 (% of Positive Control),Apelin Receptor (APJ); 10 μM peptide,45.5%
same,pMEK1 (% of Positive Control),Apelin Receptor (APJ); 50 μM peptide,79.4%
